The test system of one assay is HCT-116. Briefly: Cytotoxicity against human HCT116 cells after 72 hrs. The class given is functional, cell-based. The conditions noted are these: HCT-116, 72 h.
A further assay has as its system HeLa. The experiment in a line: Cytotoxicity against human HeLa cells after 72 hrs. The class given is functional, cell-based.

Take `C=C(C)[C@H]1C2=CC(C(=O)OC)=C(C[C@H](C(=C)C)[C@@H](O)[C@@H](N[C@H]3C4=C[C@@H](OC4=O)[C@@H](C(=C)C)C4=CC(C(=O)OC)=C(C[C@H](C(=C)C)[C@H]3O)O4)C3=C[C@H]1OC3=O)O2` [BIS(GORGIACEROL)AMINE]: the IC50 is 28 µM in the assay on HCT-116 and over 100 µM in the assay with HeLa.

In the case of `C=C(C)[C@H]1C2=CC(C(=O)OC)=C(C[C@H](C(=C)C)[C@H](O)/C=C3\C(=O)O[C@@H]1[C@@H]3N[C@H]1C3=C[C@@H](OC3=O)[C@@H](C(=C)C)C3=CC(C(=O)OC)=C(C[C@H](C(=C)C)[C@H]1O)O3)O2` [BIS(PSEUDOPTERANE)AMINE], the IC50 was 4 µM in the assay on HCT-116 and 42 µM with HeLa.

What is called IC50 is the concentration at which inhibition is half-maximal.

(Values after ChEMBL document CHEMBL1152412, “Isolation, biomimetic synthesis, and cytotoxic activity of bis(pseudopterane) amines” (J Nat Prod, 2009).)
